Data set [1] deals with primary neurons. The conditions noted are these: for protection from peroxide (PO) induced mitochondrial fragmentation: 75 μM peroxide, 12.5 μM compound, 48 h.
Data set [2] concerns primary neurons. The data set can be described thus: TMRM fluorescence assay of inner mitochondrial membrane potential (ΔΨm). The conditions noted are these: for Emax / EC50: Mus musculus, Primary neuron; for Emax: read-out: TMRM (Effect-size); for EC50: read-out: TMRM-EC50; for TMRM Primary: primary screen; for TMRM Primary / TMRM Rescreen: 24 h.
In data set [3] the test system is primary neurons. The data set can be described thus: CellTiter-Glo luminescence-based ATP assay. The conditions noted are these: for ATP: ATP orthogonal screen, 24 h; for EC50 / Emax: Mus musculus, Primary neuron, dose response; for EC50: 15 concentrations from 6 nM to 100 uM; for Emax: maximal percent increase relative to in-plate DMSO controls, read-out: ATP (Effect-size). The format is cell-based, mouse. The method, boiled down:
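Primary neurons treated from DIV13 for 24 h with compound or DMSO. After part of the medium was removed, CellTiter-Glo reagent was added; plates were shaken 10 min at 200 rpm, kept 2 min in the dark at room temperature, and luminescence read as total ATP.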

Data set [4] concerns primary neurons. The experiment in a line: Mitochondrial morphology and neurite area after functional modulators. The data set is classed as cell-based, mouse. Also on record: key to Neurite Area: non-significant (n.s.). The conditions noted are these: significant change. As for the experimental part: Mitochondrial morphology and neurite area measurements. Mitochondrial morphology and neurite area were quantified using methods described by Varkuti et al, 2020. Briefly, Cre-dependent mitochondrial targeted GFP2 (mito-GFP) ROSA26 knock-in mice were crossed with Ai14 (007908, The Jackson Laboratory) expressing cytosolic-tdTomato, and the forebrain of P0 pups were isolated and primary neurons were cultured as described above. AAV9 virus containing the iCRE sequence driven by the neuron specific CaMKII promoter was added to the cell culture at plating and 75% of the media replaced 4 h after plating. […] Z-projected images of the green channel were preprocessed (background subtraction: rolling ball, radius=3; median filtering: radius=1) and somatic mitochondria were removed (see details in Varkuti et al, Science Advances 6 (2020) eaaw8702). Red channel images were also preprocessed (tubeness filter, soma removal). Preprocessed images were segmented by GE Developer software (object-based, kernel size: 3). […] The length and circularity measurements for mitochondria were aggregated using the median and the area for neurites using the sum. After removing empty fields and outlier values from the fields, aggregated field values were averaged to well values (4 fields/well, 12 wells/compound). Robust Z-scores were calculated using DMSO-treated wells for each well ((mediancompound−medianDMSO)/median absolute deviationDMSO), well values were averaged for each compound.
A high-content assay was developed in parallel to monitor aspects of mitochondrial dynamics in primary cultured neurons that conditionally express (Cre recombinase dependent) mitochondrial-tagged GFP and cytosolic tdTomato reporters (Varkuti et al., 2020). We monitored two aspects of neuritic mitochondrial dynamics: (1) the health of mitochondria as measured by the average circularity of axonal mitochondria, since defective mitochondria targeted for mitophagy become circular in shape, and (2) the balance between fission/fusion measured by the average length of dendritic mitochondria. […] FIG. 19A illustrates the results of surveying a collection of functional modulators selected from 5 different structural clusters (FIG. 17), quantified as robust z-scores relative to DMSO-treated control neurons.

For data set [5], the system named is primary forebrain neurons. The conditions noted are these: 48 h; for death among neurons compared to control: Aβ(1-42) 10 μM; for live:dead cell ratio in the presence of toxic concentrations of glutamate: 25 μM glutamate.
Data set [6] has as its system isolated forebrain mitochondria. The data set can be described thus: ATP production of isolated mitochondria (luciferase-based kinetic assay). The conditions noted are these: for ATP production kinetics, amplitude of single exponential fit: 12 μM, starting 20 min after addition, DMSO 22498±358; for ATP production of isolated mitochondria (direct effect): 12.5 μM, within the 45-min measurement period, vs DMSO. The data set is classed as biochemical, mouse. As for the experimental part:
Isolation of mitochondria. For the ATP synthesis experiments of FIG. 6, forebrains from P0 pups were dissected as described above. 2×10^7 cells were harvested for high-purity mitochondrial isolation using the Qiagen QProteome kit. The mitochondrial pellet was resuspended in 500 μl mitochondria storage buffer (provided by kit) and kept on ice until further use.
ATP production of isolated forebrain mitochondria of P0 pups was measured by ATP Determination Kit (Molecular Probes). […] The reactions were initiated by the addition of 1 mM ADP (deprived of ATP contamination by adding 3 U/ml hexokinase to 10 mM of ADP in 50 mM Tris-HCl, 20 mM MgCl2 and 22 mM glucose, incubating the solution at 37° C. for 1 hr and heat inactivating the hexokinase at 100° C. for 3 min). Luminescence was recorded every 15-30 sec for 1 hr at 580±40 nm.

Data set [7] has as its system primary forebrain neurons. The experiment in a line: cells. The conditions noted are these: for EC50: Mus musculus, Neuron; for EC50 / Dendritic Mt CA / Neurite Area: 24 h; for Dendritic Mt CA / Neurite Area: rescreen, 12.5 μM, vs DMSO wells. As for the experimental part: Primary forebrain cell culture and maintenance. Forebrains of P0 Mt or Mt/Ai14 pups without olfactory bulbs and meninges were collected and placed in ice cold Ca^2+ and Mg^2+ free HBSS supplemented with 2 μg/ml gentamicin, 25 mM D-glucose, 1 mM pyruvate and 20 mM HEPES. Brain tissue was digested with 0.6 mg/ml papain at 37° C. for 20 min. Forebrains were washed with plating media [Neurobasal (Gibco), 5% FBS, 4 mM GlutaMAX (Gibco), 2 μg/ml gentamicin]. The tissue was gently triturated, allowed to settle and the supernatant was filtered through a 40 μm mesh-sized cell strainer. Cells were centrifuged at 420×g for 4 min and resuspended in plating media. 15,000 cells per well were plated with 2×10^8 viral particles/ml onto black Greiner μClear (Cat #781946) or Ultra-Low Base Aurora with evaporation barrier (Cat #ABE201201B) 384-well plates (80 μl/well) pre-coated with poly-D-lysine for the primary screen and rescreen, respectively. Plating and media changes were performed using an automated Biomek FX^P liquid handling workstation. Four hr after plating, 75% of the plating media was replaced by feeding media [Neurobasal-A (Gibco), 4 mM GlutaMAX (Gibco), 2 μg/ml gentamicin, 2% B27 (Gibco)]. At DIV4, 50% of the media was exchanged with fresh feeding media supplemented with 16 μM 5-Fluoro-2′-deoxyuridine (FUdR) to prevent glial cell over-growth. At DIV8 and DIV12, additional 50% media changes were made without FUdR. Cells were maintained at 37° C. and 5% CO2; plates were topped with Breathe-Easy adhesive membranes (Greiner plates) to minimize evaporation.
Compounds and compound transfer.
Imaging. Images were captured using a GE Incell 6000 system (60× objective, 0.95 NA, 16-bit images) equipped with environmental control (37° C., 5% CO2). Mt-GFP (green channel) was imaged by confocal imaging (3 slices, Δz=0.7 μm, aperture=1.0 AU, λexc=488 nm, λem=515-535 nm). Cyto-tdTomato (red channel) and MitoTracker Orange (red channel) were imaged using confocal mode (3 slices, Δz=0.7 μm, aperture=1.0 AU, λexc=561 nm, λem=569-641 nm, MitoTracker Orange) or with widefield mode (Cyto-tdTomato). TMRM imaged for the co-localization experiments with Mt-GFP was imaged using the confocal mode (3 slices, […] aperture=1.0, λexc=488, λem=569-641 nm). For the live-dead assay, primary neurons were imaged with a 20× (widefield mode, NA 0.45) objective using λexc=561 nm and λem=569-641 nm for the propidium iodide stained dead cells (red channel), and λexc=488 nm and λem=515-535 nm for the fluorescein diacetate stained live cells (green channel). 10 fields were collected from each well, and 4 wells were imaged/condition in the live-dead assay. For all other experiments, 4 fields/well were imaged unless otherwise stated.
Automated data analysis pipeline. Most experiments utilized only Mt-GFP; some utilized both Mt-GFP and Cyto-tdTomato. The Z-projected images were preprocessed using a custom Fiji macro. For preprocessing of Mt-GFP images: background was subtracted (rolling ball, radius=3), images were median filtered (radius=1) and somatic mitochondria were removed. For removal of the somatic mitochondria, they were first segmented and then a somatic mitochondrial mask overlaid on the image.

[8] abbreviates: peroxide 75 μM, glutamate 25 μM.
[9] abbreviates: read-out: Health (Ax Mt Circularity) EC50.
Setting [10] is: read-out: Mt Content (Dend Mt CA) EC50.
Where [11] appears, read: read-out: Sprouting (Neurite Area) EC50.

Counter-ions that a name gives are not always drawn. Like-named read-outs stand apart in the source and are kept apart here.

Take “Aβ(1-40): less-toxic oligomeric amyloid-β peptide used as control”: the “mitochondrial fragmentation caused by oligomeric peptide” value in the data set with primary neurons [1] is reported as “failed to cause mitochondrial fragmentation”.
One may read the EC50 as the concentration needed to bring the measured effect to its halfway point. Take `CCCCOc1cc(C(=O)OCCN(CC)CC)ccc1N` [benoxinate hydrochloride]: in the data set on primary neurons [2], the Emax was 21%, the EC50 came out at 0.49 µM and the “TMRM Rescreen” value amounted to 6.64 Z-scores. Moreover, the “TMRM Primary” value in the data set on primary neurons [2] (12.5 μM) stood at 3.62 Z-scores. Further, in the data set on primary neurons [3], the ATP was found to be 5.57 Z-scores, the half-maximal effective concentration (EC50) was 0.08 µM and the Emax was 21.4%. Further, in the data set on primary neurons [4], the “Mitochondrial Morphology” value is on record as “elongated” and the “Neurite Area” value is given as “n.s”.
For “Aβ(1-42): toxic amyloid-β peptide fragment, oligomeric, HFIP-treated peptide (BACHEM)”, the “death among neurons compared to control” value in data set [5] (setting [8]) was “no detectable death”.
For `O=C(/C=C/c1ccccc1)c1ccc(O)cc1` [4′-HYDROXYCHALCONE], the “ATP production kinetics, amplitude of single exponential fit” value (“ATP production kinetics, amplitude” for short) in data set [6] worked out at 6121±99. Also, the “ATP production of isolated mitochondria (direct effect)” value (“ATP production … (direct effect)” below) in data set [6] is “decreased”. In addition, the EC50 in data set [7] (read-out: Elongation (Dend Mt length) EC50) is 2.3 µM; in data set [7] (setting [9]), 5.8 µM; in data set [7] (setting [10]), 4.8 µM; in data set [7] (setting [11]), 0.9 µM. Moreover, the “Dendritic Mt CA” value in data set [7] was 5.11 robust Z-scores. In addition, the “Neurite Area” value in data set [7] was determined as 2.21 robust Z-scores. Further, the “live:dead cell ratio in the presence of toxic concentrations of glutamate” value in data set [5] is on record as “offered protection”. Further, in the data set on primary neurons [1], the “protection from peroxide (PO) induced mitochondrial fragmentation” value is on record as “fully protected”.
Consider `O=C(/C=C/c1ccccc1)c1ccc(O)cc1O` [2′,4′-DIHYDROXYCHALCONE], for which, in data set [6], the “ATP production kinetics, amplitude” value is reported as 9853±132 and the “ATP production … (direct effect)” value is listed as “decreased”. The concentration for a half-maximal effect (EC50) in data set [7] (setting [9]) was determined as 6.7 µM. In data set [7] (setting [11]), the EC50 is more than 25 µM. For the same compound, in data set [7], the “Dendritic Mt CA” value is given as 3.39 robust Z-scores and the “Neurite Area” value is recorded as 0.42 robust Z-scores. Besides, the “live:dead cell ratio in the presence of toxic concentrations of glutamate” value in data set [5] is recorded as “offered protection”.
Consider `Cc1ccc(-c2cc(C(F)(F)F)nn2-c2ccc(S(N)(=O)=O)cc2)cc1` [celecoxib], for which, in the data set with primary neurons [2] (12.5 μM, 4 h), the “hit in TMRM primary screen when assayed at 4 h” value is reported as “celecoxib*”. In addition, in the data set with primary neurons [2], the Emax was 27.5%, the EC50 amounted to 5.18 µM and the “TMRM Rescreen” value was found to be 4.72 Z-scores. Also, the “TMRM Primary” value in the data set on primary neurons [2] (12.5 μM) is reported as 6.67 Z-scores. Further, in the data set on primary neurons [3], the ATP amounted to 7.57 Z-scores, the EC50 was 0.49 µM and the Emax came to 20.7%. Further, the “Neurite Area” value in the data set on primary neurons [4] was “n.s”.
For `COc1ccccc1N1CCN(CC(O)COc2cccc3ccccc23)CC1` (stereo not drawn) [NAFTOPIDIL], in data set [6], the “ATP production kinetics, amplitude” value is 49917±838 and the “ATP production … (direct effect)” value is given as “significantly increased”. For the same compound, in the data set with primary neurons [2], the Emax is 18.8%, the EC50 was determined as 2.24 µM and the “TMRM Rescreen” value is 9.07 Z-scores. Also, in the data set with primary neurons [2] (12.5 μM), the “TMRM Primary” value is 3.64 Z-scores. Besides, in the data set with primary neurons [3], the ATP was 3.62 Z-scores, a half-maximal response (EC50) required 0.23 µM and the Emax amounted to 15%. For the same compound, the half-maximal effective concentration (EC50) in data set [7] (setting [9]) was 0.2 µM. Besides, the concentration giving a half-maximal response (EC50) in data set [7] (setting [10]) was determined as 0.1 µM. In data set [7] (setting [11]), the EC50 was determined as 0.5 µM. In data set [7], the “Dendritic Mt CA” value is 4.86 robust Z-scores and the “Neurite Area” value was 2.41 robust Z-scores. The “protection from peroxide (PO) induced mitochondrial fragmentation” value with primary neurons [1] is listed as “fully protected”.
`N#CC(C#N)=NNc1ccc(OC(F)(F)F)cc1` [FCCP, carbonyl cyanide-p-trifluoromethoxyphenylhydrazone]: the “ATP production kinetics, amplitude” value in data set [6] stood at 17958±216. In data set [7], the “average area of axonal mitochondria” value is reported as 0.39 μm^2, the “average area of dendritic mitochondria” value is on record as 1.06 μm^2, the “average well axonal mitochondrial CA” value is 629±83 μm^2 and the “average well dendritic mitochondrial CA” value turned out to be 123±44 μm^2. Besides, in data set [7], the “increase in axonal mitochondrial CA” value amounted to 225 μm^2, the “median axonal mitochondrial circularity” value worked out at 0.94±0.004, the “median dendritic mitochondrial length” value turned out to be 2.77±0.07 μm and the “number of axonal mitochondria” value came out at 51767. Besides, in data set [7], the “number of dendritic mitochondria” value turned out to be 3713; the “sum of dendritic and axonal mitochondrial CA” value is on record as 754 μm^2. Further, the “reduction in the average dendritic mitochondrial CA per well” value in data set [7] (FCCP treatment vs DMSO) is listed as approximately 90%.
For `N[C@@H](CCC(=O)O)C(=O)[O-].[Na+]` [glutamate, monosodium glutamate], the “death among neurons compared to control” value in data set [5] (setting [8]) stood at 42%. Moreover, the “live cell ratio (live cells/live+dead cells)” value in data set [5] (peroxide 75 μM, glutamate 25 μM, control 0.57) is 0.26.
